Test results published in EP4737448A1, “SARM1 ENZYME ACTIVITY INHIBITOR AND USE THEREOF” (Artivila (ShenZhen) Innovation Center, Ltd., priority 2023, dated 2025).

Molecular target: T1, SARM1 (Homo sapiens, UniProt Q6SZW1)
T1 construct: the inventor produces full-length SARM1 for NADase activity assays and for screening; His (C); made in house; host or cells: HEK293 cells (transient transfection; digitonin lysate supernatant, not purified further)
T1 sequence (Q6SZW1 28-724): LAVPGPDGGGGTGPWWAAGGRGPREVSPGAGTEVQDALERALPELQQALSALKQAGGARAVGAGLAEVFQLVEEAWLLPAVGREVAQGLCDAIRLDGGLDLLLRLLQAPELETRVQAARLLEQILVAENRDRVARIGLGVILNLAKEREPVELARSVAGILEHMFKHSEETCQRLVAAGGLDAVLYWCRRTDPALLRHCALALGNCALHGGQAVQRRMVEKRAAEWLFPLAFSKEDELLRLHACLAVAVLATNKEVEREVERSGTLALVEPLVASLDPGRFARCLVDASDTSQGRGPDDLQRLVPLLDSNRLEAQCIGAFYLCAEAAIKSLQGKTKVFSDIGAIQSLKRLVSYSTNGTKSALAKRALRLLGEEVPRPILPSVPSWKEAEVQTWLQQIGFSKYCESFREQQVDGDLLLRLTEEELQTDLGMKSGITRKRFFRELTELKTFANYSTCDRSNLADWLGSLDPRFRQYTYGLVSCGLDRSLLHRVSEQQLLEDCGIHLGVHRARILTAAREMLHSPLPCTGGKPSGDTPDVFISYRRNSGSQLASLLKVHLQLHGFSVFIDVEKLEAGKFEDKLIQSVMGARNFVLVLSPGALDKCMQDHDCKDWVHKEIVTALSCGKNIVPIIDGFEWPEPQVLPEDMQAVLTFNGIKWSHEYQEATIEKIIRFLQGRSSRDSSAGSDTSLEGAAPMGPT
Experiment: In vitro biochemical assay for inhibiting SARM1 enzymatic activity (PC6 fluorescence, NAD substrate, NMN activator)
Details: 0.05 µg/mL SARM1, 50 µM NAD, 50 µM PC6, 50 µM NMN, 10 min pre-incubation, 30 min at room temperature
Procedure: Compounds to be tested were stocked at 200 µM or 10 mM (in DMSO), and further diluted to the desired compound concentration for the in vitro SARM1 enzyme assay and inhibitor screening.
The gene sequence encoding SARM1 protein was amplified by PCR and the PCR amplification product was constructed into the pcDNA3.1-HIS-C plasmid. This construction was completed by YouBio Biological Technology (Hunan, China).
HEK293 cells were cultured in DMEM in a 10 cm dish. The next day, cells were transfected with 15 µg of the pcDNA3.1-SARM1-HIS-C expression plasmid.
Cells were harvested 48 hours after the transfection. The SARM1 protein expressed in cells was obtained through cell lysis by digitonin, which was used for in vitro activity assay. The specific process was as follows:
Cells were digested and detached from the dish using trypsin-EDTA, centrifuged at 1000 rpm for 5 minutes, washed once with PBS, then resuspended in PBS containing 100 µM digitonin at 0.6 mL PBS for the cells in 10 cm dish and lysed for 5 min. The cells were added with trypan blue and observed under a microscope. More than 90% of the cells were confirmed to be lysed. The cells were centrifuged at 5000 rpm for 10 min, and the supernatant containing SARM1 protein was collected.
The compound was added into a solution of 50 mM Tris-HCl (pH 7.5) containing 0.05 µg/mL SARM1 to achieve a concentration of 200 µM, and then serially diluted 6 times, where each dilution was carried out by taking half of the previous solution and adding an equal volume of 50 mM Tris-HCl (pH 7.5) containing 0.05 µg/mL SARM1, yielding a set of final concentrations of the compound of either 200, 100, 50, 25, 12.5, 6.25 and 3.125 µM, or 200, 50, 12.5, 3.125, 0.78, 0.195 and 0.049 µM. No inhibitor was added in the control group. All mixtures were incubated at room temperature for 10 min.
Subsequently, 50 µM NAD, 50 µM PC6 as substrate and 50 µM NMN as activator were added to the SARM1 protein incubated with the inhibitor and reacted for 30 min at room temperature. Wherein, the aforementioned concentrations of each component represent their respective final concentrations in the reaction system
During the reaction, the fluorescence spectrum dynamics of PC6 was detected by a microplate reader, with excitation and emission wavelengths set at 390 nm and 520 nm, respectively. The activity of the protein was expressed as the reaction rate and half maximal inhibitory concentration was calculated. The higher the reaction rate, the stronger the protein activity, and the lower the inhibitory efficiency of the compound.
Dose-response curves for inhibition of SARM1 enzymatic activity for NAD by the compounds were plotted using the above method.

Compound	IC50 [µM]
3-(4-chloro-2-fluorobenzyl)-1-(4-(pyridin-4-yl)phenyl)pyrrolidin-2-one [Compound 42]	1 to 10
O=C1C(Oc2ccc(Cl)cc2)CCN1c1ccc(-c2ccncc2)cc1 (stereo not shown) [Compound 2, 3-(4-chlorophenoxy)-1-(4-(pyridin-4-yl)phenyl)pyrrolidin-2-one]	10 to 30
CC(c1ccc(Cl)cc1)C1CCN(c2ccc(-c3ccncc3)cc2)C1=O (stereo not shown) [Compound 4, 3-(1-(4-chlorophenyl)ethyl)-1-(4-(pyridin-4-yl)phenyl)pyrrolidin-2-one]	10 to 30
C=C(Cc1ccc(Cl)cc1)C(=O)Nc1ccc(-c2ccncc2)cc1 [Compound 5]	< 1
O=C1C(Cc2ccc(Cl)cc2)CCN1c1ccc(-c2ccncn2)cc1 (stereo not shown) [Compound 9, 3-(4-chlorobenzyl)-1-(4-(pyrimidin-4-yl)phenyl)pyrrolidin-2-one]	1 to 10
Cc1cc(N2CCC(Cc3ccc(Cl)cc3)C2=O)ccc1-c1ccncc1 (stereo not shown) [Compound 10, 3-(4-chlorobenzyl)-1-(3-methyl-4-(pyridin-4-yl)phenyl)pyrrolidin-2-one]	1 to 10
O=C1C(Cc2ccc(Cl)cc2)CCN1c1ccc(-c2ccncc2)cc1Cl (stereo not shown) [Compound 11, 3-(4-chlorobenzyl)-1-(2-chloro-4-(pyridin-4-yl)phenyl)pyrrolidin-2-one]	10 to 30
S=C1C(Cc2ccc(Cl)cc2)CCN1c1ccc(-c2ccncc2)cc1 (stereo not shown) [Compound 12]	< 1
O=C1N(Cc2ccc(Cl)cc2)CCN1c1ccc(-c2ccncc2)cc1 [Compound 13, 1-(4-chlorobenzyl)-3-(4-(pyridin-4-yl)phenyl)imidazolin-2-one]	< 1
Cc1cnccc1-c1ccc(N2CCC(Cc3ccc(Cl)cc3)C2=O)cc1 (stereo not shown) [Compound 14, 3-(4-chlorobenzyl)-1-(4-(3-methylpyridin-4-yl)phenyl)pyrrolidin-2-one]	< 1
O=C1C(Cc2ccc(Cl)c(F)c2)CCN1c1ccc(-c2ccncc2)cc1 (stereo not shown) [Compound 16, 3-(4-chloro-3-fluorobenzyl)-1-(4-(pyridin-4-yl)phenyl)pyrrolidin-2-one]	1 to 10
O=C1C(Cc2ccc(C(F)(F)F)cc2)CCN1c1ccc(-c2ccncc2)cc1 (stereo not shown) [Compound 18, 3-(4-trifluoromethylbenzyl)-1-(4-(pyridin-4-yl)phenyl)pyrrolidin-2-one]	1 to 10
N#Cc1ccc(CC2CCN(c3ccc(-c4ccncc4)cc3)C2=O)cc1 (stereo not shown) [Compound 19, 3-(4-cyanobenzyl)-1-(4-(pyridin-4-yl)phenyl)pyrrolidin-2-one]	1 to 10
O=C1C(Cc2ccc(Cl)cc2)=CCN1c1ccc(-c2ccncc2)cc1 [Compound 22]	1 to 10
O=C1C(Cc2ccc(Cl)cc2)CCN1c1cnc(-c2ccncc2)nc1 (stereo not shown) [Compound 23, 3-(4-chlorobenzyl)-1-(2-(pyridin-4-yl)pyrimidin-5-yl)pyrrolidin-2-one]	10 to 30
O=C1C(Cc2cccc(Cl)c2)CCN1c1ccc(-c2ccncc2)cc1 (stereo not shown) [Compound 26, 3-(3-chlorobenzyl)-1-(4-(pyridin-4-yl)phenyl)pyrrolidin-2-one]	10 to 30
O=C1C(CCc2ccc(Cl)cc2)CCN1c1ccc(-c2ccncc2)cc1 (stereo not shown) [Compound 27, 3-(4-chlorophenethyl)-1-(4-(pyridin-4-yl)phenyl)pyrrolidin-2-one]	10 to 30
O=C1C(Cc2ccc(Cl)cn2)CCN1c1ccc(-c2ccncc2)cc1 (stereo not shown) [Compound 28]	10 to 30
O=C1C(Cc2ccc(Br)cc2)CCN1c1ccc(-c2ccncc2)cc1 (stereo not shown) [Compound 31, 3-(4-bromobenzyl)-1-(4-(pyridin-4-yl)phenyl)pyrrolidin-2-one]	10 to 30

Compound	IC50 [µM]
O=C1C(Cc2ccc([N+](=O)[O-])cc2)CCN1c1ccc(-c2ccncc2)cc1 (stereo not shown) [Compound 32, 3-(4-nitrobenzyl)-1-(4-(pyridin-4-yl)phenyl)pyrrolidin-2-one]	10 to 30
O=C1C(Cc2ccc(Cl)cc2)CCN1c1ccc(-c2ccncc2F)cc1 (stereo not shown) [Compound 35, 3-(4-chlorobenzyl)-1-(4-(3-fluoropyridin-4-yl)phenyl)pyrrolidin-2-one]	< 1
N#Cc1cnccc1-c1ccc(N2CCC(Cc3ccc(Cl)cc3)C2=O)cc1 (stereo not shown) [Compound 36, 3-(4-chlorobenzyl)-1-(4-(3-cyanopyridin-4-yl)phenyl)pyrrolidin-2-one]	10 to 30
NC(=O)c1cnccc1-c1ccc(N2CCC(Cc3ccc(Cl)cc3)C2=O)cc1 (stereo not shown) [Compound 37]	1 to 10
O=C1C(Cc2ccc(Cl)cc2)CCCN1c1ccc(-c2ccncc2)cc1 (stereo not shown) [Compound 38, 3-(4-chlorobenzyl)-1-(4-(pyridin-4-yl)phenyl)piperidin-2-one]	1 to 10
COc1cc(-c2ccncc2)ccc1N1CCCC(Cc2ccc(Cl)cc2)C1=O (stereo not shown) [Compound 39, 3-(4-chlorobenzyl)-1-(2-methoxy-4-(pyridin-4-yl)phenyl)piperidin-2-one]	1 to 10
O=C1C(Cc2ccc(Cl)cc2)CCON1c1ccc(-c2ccncc2)cc1 (stereo not shown) [Compound 40, 4-(4-chlorobenzyl)-2-(4-(pyridin-4-yl)phenyl)-1,2-oxaza-3-one]	1 to 10
O=C1CC(Cc2ccc(Cl)cc2)C(=O)N1c1ccc(-c2ccncc2)cc1 (stereo not shown) [Compound 43, 3-(4-chlorobenzyl)-1-(4-(pyridin-4-yl)phenyl)pyrrolidin-2,5-one]	1 to 10
N#Cc1ccc(CC2CCN(c3ccc(-c4ccncc4)nn3)C2=O)cc1 (stereo not shown) [Compound 61]	< 1
Cc1ccc(CC2CCN(c3ccc(-c4ccncc4)nn3)C2=O)cc1 (stereo not shown) [Compound 63]	< 1
O=C1C(Cc2cc(F)cc(F)c2)CCN1c1ccc(-c2ccncc2)nn1 (stereo not shown) [Compound 68]	< 1
O=C1C(Cc2ccc(Cl)o2)CCN1c1ccc(-c2ccncc2)cc1 (stereo not shown) [Compound 73]	1 to 10
Cc1cnccc1-c1ccc(N2CCC(Cc3ccc(Cl)cc3)C2=O)nn1 (stereo not shown) [Compound 74, 3-(4-chlorobenzyl)-1-(6-(3-methylpyridin-4-yl)pyridazin-3-yl)pyrrolidin-2-one]	< 1
O=C1/C(=C/c2ccc(Cl)cc2)CCN1c1ccc(-c2ccncc2)nn1 [Compound 78, (E)-3-(4-chlorobenzylidene)-1-(6-(pyridin-4-yl)pyridazin-3-yl)pyrrolidin-2-one]	10 to 30
O=C1C(Cc2ccc(F)c(F)c2)=CCN1c1ccc(-c2ccncc2)cc1 [Compound 85, 3-(3,4-difluorobenzyl)-1-(4-(pyridin-4-yl)phenyl)-1,5-dihydro-2H-pyrrolidin-2-one]	1 to 10
COC(=O)c1ccc(CC2CCN(c3ccc(-c4ccncc4)cc3)C2=O)cc1 (stereo not shown) [Compound 86, methyl 4-((2-oxo-1-(4-(pyridin-4-yl)phenyl)pyrrolidin-3-yl)methyl)benzoate]	1 to 10
O=C(O)c1ccc(CC2CCN(c3ccc(-c4ccncc4)cc3)C2=O)cc1 (stereo not shown) [Compound 87, 4-((2-oxo-1-(4-(pyridin-4-yl)phenyl)pyrrolidin-3-yl)methyl)benzoic acid]	10 to 30
CN1CCN(Cc2ccc(CC3CCN(c4ccc(-c5ccncc5)cc4)C3=O)cc2)CC1 (stereo not shown) [Compound 88, 3-(4-((4-methylpiperazin-1-yl)methyl)benzyl)-1-(4-(pyridin-4-yl)phenyl)pyrrolidin-2-one]	10 to 30
